Laboratory results reported in US20240294526A1, “FUSED TRI-CYCLIC COMPOUND AS A PDE3/PDE4 DUAL INHIBITOR” (CHIA TAI TIANQING PHARMACEUTICAL GROUP CO., LTD., priority 2018, published 2024).

What was measured:
[1] = reported; cited from earlier work
[2] = reported; cited from earlier work; remark: listed apart in the source
recombinant human PDE3A = recombinant human PDE3A (Homo sapiens (Human), UniProt Q14432); assay: In vitro inhibitory activity against PDE 3A enzyme (fluorescence polarization); type: biochemical; settings: 1 μM cAMP
Description: (§1) Experimental objective: to determine the AMP/GMP expression based on fluorescence polarization, i.e., to trace binding of AMP/GMP to antibody so as to indicate enzyme activity.
Experimental buffer solution: 10 mM Tris-HCl (pH 7.5), 5 mM MgCl2, 0.01% Brij 35, 1 mM Dithiothreitol (DTT), and 1% DMSO.
Enzyme: recombinant human PDE3A (Gene accession number: NM_000921; amino acid 669-end) was expressed by baculovirus in Sf9 insect cells using an N-terminal GST tag, with molecularweight being 84 kDa.
(§2) Enzyme substrate: 1 μM cAMP
(§3) Detection: Transcreener® AMP2/GMP2 antibody and AMP2/GMP2 AlexaFluor633 tracer.
(§4) • 1. The recombinant human PDE3A enzyme and enzyme substrate (1 μM cAMP) were each dissolved in newly-prepared experimental buffer solution; • 2. The PDE3A enzyme buffer solution was transferred into reaction wells; • 3. The compound which was dissolved in 100% DMSO was added to the reaction wells containing PDE3A enzyme buffer solution by acoustic technique (echo 550; millilambda range) and the mixture was incubated for 10 minutes at room temperature; • 4. The enzyme substrate buffer solution was added to the above reaction wells to initiate reaction; • 5. The resulting mixture was incubated at room temperature for 1 hour; • 6. The detection mixture (Transcreener® AMP2/GMP2 antibody and AMP2/GMP2 AlexaFluor633 tracer) was added to stop the reaction, and the resulting mixture was incubated for 90 minutes while slowly mixing. The measurement range of fluorescence polarization was Ex/Em=620/688.
(§5) Data analysis: the fluorescence polarization signal was converted to nM based on AMP/GMP standard curve and the percentage enzyme activity relative to DMSO control calculated by Excel. GraphPad Prism was used for curve fitting (drawing medical icon).

recombinant human PDE4B = recombinant human PDE4B (Homo sapiens (Human), UniProt Q07343); assay: In vitro inhibitory activity against PDE 4B enzyme (fluorescence polarization); type: biochemical; settings: 1 μM cAMP
Description: as §1
Experimental buffer solution: 10 mM Tris-HCl (pH 7.5), 5 mM MgCl2, 0.01% Brij 35, 1 mM DTT, and 1% DMSO.
Enzyme: recombinant human PDE4B (Gene accession number: NM_002600; amino acid 305-end) was expressed by baculovirus in Sf9 insect cells using an N-terminal GST tag, with molecularweight being 78 kDa.
as §2, §3
as §4, with “PDE4B” for “PDE3A”, “newly prepared” for “newly-prepared”
as §5

[3] = Pharmacokinetic experiment in beagle dogs; type: in vivo
Description: In this study, male beagle dogs were selected as test animals, and liquid chromatography-tandem mass spectrometry (LC-MS/MS) method was used for quantitatively measuring the drug concentration in plasma of beagle dogs at different time points after intravenous injection or oral administration of compound WX036 so as to evaluate the pharmacokinetic characteristics of the compound WX036 in beagle dogs.
The clear solution of compound WX036 was injected into two 10-12 kg beagle dogs via the cephalic vein or saphenous vein, and the clear solution of test compound was administered intragastrically to two 10-12 kg beagle dogs (overnight fasted). The animals were all subjected to approximately 500 μL of blood collection each time from peripheral veins at 0.0333, 0.0833, 0.25, 0.5, 1, 2, 4, 6, 8, and 24 hours post-dose, and the blood was transferred into commercial centrifuge tubes containing 0.85-1.15 mg of K2 EDTA*2H2O anticoagulant, and plasma was taken by centrifugation at 3000 g for 10 minutes at 4° C. The plasma concentration was measured by LC-MS/MS method, and the relevant pharmacokinetic parameters were calculated by WinNonlin™ Version 6.3 (Pharsight, Mountain View, CA) pharmacokinetic software using non-compartmental model linear logarithmic trapezoid method.

Sequence of recombinant human PDE3A (Q14432 669-1141 limits assumed): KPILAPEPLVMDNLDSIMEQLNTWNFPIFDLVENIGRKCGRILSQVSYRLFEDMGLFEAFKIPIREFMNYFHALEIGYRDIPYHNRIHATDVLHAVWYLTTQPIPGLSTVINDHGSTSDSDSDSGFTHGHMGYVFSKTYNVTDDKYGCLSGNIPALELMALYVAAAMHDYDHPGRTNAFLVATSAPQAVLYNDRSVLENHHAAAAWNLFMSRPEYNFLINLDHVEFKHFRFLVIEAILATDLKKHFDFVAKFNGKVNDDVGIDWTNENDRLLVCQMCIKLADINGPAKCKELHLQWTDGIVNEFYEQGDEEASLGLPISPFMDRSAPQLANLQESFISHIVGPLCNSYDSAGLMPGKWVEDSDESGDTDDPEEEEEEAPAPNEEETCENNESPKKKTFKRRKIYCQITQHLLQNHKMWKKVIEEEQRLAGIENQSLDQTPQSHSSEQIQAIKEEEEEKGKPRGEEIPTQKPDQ
Sequence of recombinant human PDE4B (Q07343 305-736 limits assumed): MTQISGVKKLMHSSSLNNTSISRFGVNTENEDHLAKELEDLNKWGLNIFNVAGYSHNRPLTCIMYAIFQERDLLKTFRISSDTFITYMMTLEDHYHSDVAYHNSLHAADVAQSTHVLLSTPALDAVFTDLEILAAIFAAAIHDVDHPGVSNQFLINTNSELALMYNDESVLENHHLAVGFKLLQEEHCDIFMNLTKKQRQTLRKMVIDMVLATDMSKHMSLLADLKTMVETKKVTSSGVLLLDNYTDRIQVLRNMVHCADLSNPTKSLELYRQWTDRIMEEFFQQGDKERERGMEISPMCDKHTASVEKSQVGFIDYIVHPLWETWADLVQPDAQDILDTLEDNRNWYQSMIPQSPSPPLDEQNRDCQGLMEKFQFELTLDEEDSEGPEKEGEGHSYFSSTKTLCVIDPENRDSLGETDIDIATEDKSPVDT

| IC50 (recombinant human PDE3A) | IC50 (recombinant human PDE4B) | SMILES | other results |
| --- | --- | --- | --- |
| 0.03 nM | 0.27 nM | CCOc1cc2c(cc1OC)-c1c/c(=N\c3c(C)cc(C)cc3C)n(CCNC(=O)c3cnn[nH]3)c(=O)n1CCC2 [WX048] |  |
| 0.3 nM | 0.05 nM | CCOc1cc2c(cc1OC)-c1c/c(=N\c3c(C)cc(C)cc3C)n(CCNC(=O)c3cnc[nH]3)c(=O)n1CCC2 [WX049] |  |
| 1.1 nM | 0.24 nM | CCOc1cc2c(cc1OC)-c1c/c(=N\c3c(C)cc(C)cc3C)n(CCNC(=O)c3ccn[nH]3)c(=O)n1CCC2 [WX050] |  |
| 0.5 nM | 0.18 nM | CCOc1cc2c(cc1OC)-c1c/c(=N\c3c(C)cc(C)cc3C)n(CCNC(=O)c3ccn[nH]3)c(=O)n1CCO2 [WX052] |  |
| 0.57 nM | 1.9 nM | CCOc1cc2c(cc1OC)-c1c/c(=N\c3c(C)cc(C)cc3C)n(CCNC(=O)c3cnn[nH]3)c(=O)n1CCO2 [WX053] |  |
|  | 2.1 nM | CCOc1cc2c(cc1OC)-c1c/c(=N\c3c(C)cc(C)cc3C)n(CCC(=O)Nc3cnn[nH]3)c(=O)n1CC2 [WX055] |  |
|  | 9.1 nM | CCOc1cc2c(cc1OC)-c1c/c(=N\c3c(C)cc(C)cc3C)n(CCC(=O)Nc3ncco3)c(=O)n1CC2 [WX056] |  |
|  | 5.4 nM | CCOc1cc2c(cc1OC)-c1c/c(=N\c3c(C)cc(C)cc3C)n(CCC(=O)Nc3cn[nH]c3)c(=O)n1CC2 [WX057] |  |

Second part, the compound before the results:

| SMILES | IC50 (recombinant human PDE3A) | IC50 (recombinant human PDE4B) | other results |
| --- | --- | --- | --- |
| COc1cc2c(cc1OC)-c1c/c(=N\c3c(C)cc(C)cc3C)n(CCNC(N)=O)c(=O)n1CC2 [RPL554] |  |  | solubility [1]: poor; plasma clearance [2]: high |
| COc1cc2c(cc1OC)-c1cc(Oc3c(C(C)C)cccc3C(C)C)nc(=O)n1CC2 [RPL565] |  |  | solubility [1]: poor; plasma clearance [2]: high |
| CCOc1cc2c(cc1OC)-c1c/c(=N\c3c(C)cc(C)cc3C)n(CCNc3nc[nH]n3)c(=O)n1CCC2 [WX004] | 0.63 nM | 0.12 nM |  |
| CCOc1cc2c(cc1OC)-c1c/c(=N\c3c(C)cc(C)cc3C)n(CCNC(=O)c3cnn[nH]3)c(=O)n1CC2 [WX016] |  | 0.24 nM |  |
| CCOc1cc2c(cc1OC)-c1c/c(=N\c3c(C)cc(C)cc3C)n(CCNC(=O)c3ncc[nH]3)c(=O)n1CC2 [WX017] |  | 0.43 nM |  |
| CCOc1cc2c(cc1OC)-c1c/c(=N\c3c(C)cc(C)cc3C)n(CCNC(=O)c3ccn[nH]3)c(=O)n1CC2 [WX018] |  | 0.05 nM |  |
| CCOc1cc2c(cc1OC)-c1c/c(=N\c3c(C)cc(C)cc3C)n(CCNC(=O)c3ncco3)c(=O)n1CC2 [WX019] |  | 0.48 nM |  |
| CCOc1cc2c(cc1OC)-c1c/c(=N\c3c(C)cc(C)cc3C)n(CCNC(=O)c3ncon3)c(=O)n1CC2 [WX020] |  | 0.47 nM |  |
| CCOc1cc2c(cc1OC)-c1c/c(=N\c3c(C)cc(C)cc3C)n(CCNC(=O)c3cnc[nH]3)c(=O)n1CC2 [WX021] |  | 1.1 nM |  |
| CCOc1cc2c(cc1OC)-c1c/c(=N\c3c(C)cc(C)cc3C)n(CCNC(=O)c3[nH]nnc3N)c(=O)n1CC2 [WX025] |  | 0.44 nM |  |
| CCOc1cc2c(cc1OC)-c1c/c(=N\c3c(C)cc(C)cc3C)n(CCNC(=O)c3[nH]nnc3OC)c(=O)n1CC2 [WX026] |  | 2.5 nM |  |
| CCOc1cc2c(cc1OC)-c1c/c(=N\c3c(C)cc(C)cc3C)n(CCNC(=O)c3c(O)nnn3C)c(=O)n1CC2 [WX036] |  |  | Area under plasma concentration-time curve (0-inf) ([3]; intravenous injection 0.5 mg/kg): 0.21 µM·h; Area under plasma concentration-time curve (0-inf) ([3]; oral administration 3 mg/kg): 0.123 µM·h; Peak concentration ([3]; oral administration 3 mg/kg): 59.4 nM; Time to peak ([3]; oral administration 3 mg/kg): 0.6 h |
| CCOc1cc2c(cc1OC)-c1c/c(=N\c3c(C)cc(C)cc3C)n(CCNC(=O)c3[nH]ncc3OC)c(=O)n1CC2 [WX037] |  | 1.7 nM |  |
| CCOc1cc2c(cc1OC)-c1c/c(=N\c3c(C)cc(C)cc3C)n(CCNC(=O)c3nnc[nH]3)c(=O)n1CCC2 [WX047] | 0.1 nM | 0.16 nM |  |
